Experimental data as given in ChEMBL document CHEMBL1158892, “Cationic reduction of bastadin-4 to bastadin-5. Preparation of 5-[2h]-bastadin-5 by site-specific isotopic labeling” (J Nat Prod, 2003).

Molecular target: Ryanodine receptor 1 (Homo sapiens) (UniProt P21817)
Test: Displacement of [3H]ryanodine from RyR1 calcium channel in sarcoplasmic reticulum assessed as calcium mobilization

Ryanodine receptor 1 (Homo sapiens), sequence (P21817 whole entry): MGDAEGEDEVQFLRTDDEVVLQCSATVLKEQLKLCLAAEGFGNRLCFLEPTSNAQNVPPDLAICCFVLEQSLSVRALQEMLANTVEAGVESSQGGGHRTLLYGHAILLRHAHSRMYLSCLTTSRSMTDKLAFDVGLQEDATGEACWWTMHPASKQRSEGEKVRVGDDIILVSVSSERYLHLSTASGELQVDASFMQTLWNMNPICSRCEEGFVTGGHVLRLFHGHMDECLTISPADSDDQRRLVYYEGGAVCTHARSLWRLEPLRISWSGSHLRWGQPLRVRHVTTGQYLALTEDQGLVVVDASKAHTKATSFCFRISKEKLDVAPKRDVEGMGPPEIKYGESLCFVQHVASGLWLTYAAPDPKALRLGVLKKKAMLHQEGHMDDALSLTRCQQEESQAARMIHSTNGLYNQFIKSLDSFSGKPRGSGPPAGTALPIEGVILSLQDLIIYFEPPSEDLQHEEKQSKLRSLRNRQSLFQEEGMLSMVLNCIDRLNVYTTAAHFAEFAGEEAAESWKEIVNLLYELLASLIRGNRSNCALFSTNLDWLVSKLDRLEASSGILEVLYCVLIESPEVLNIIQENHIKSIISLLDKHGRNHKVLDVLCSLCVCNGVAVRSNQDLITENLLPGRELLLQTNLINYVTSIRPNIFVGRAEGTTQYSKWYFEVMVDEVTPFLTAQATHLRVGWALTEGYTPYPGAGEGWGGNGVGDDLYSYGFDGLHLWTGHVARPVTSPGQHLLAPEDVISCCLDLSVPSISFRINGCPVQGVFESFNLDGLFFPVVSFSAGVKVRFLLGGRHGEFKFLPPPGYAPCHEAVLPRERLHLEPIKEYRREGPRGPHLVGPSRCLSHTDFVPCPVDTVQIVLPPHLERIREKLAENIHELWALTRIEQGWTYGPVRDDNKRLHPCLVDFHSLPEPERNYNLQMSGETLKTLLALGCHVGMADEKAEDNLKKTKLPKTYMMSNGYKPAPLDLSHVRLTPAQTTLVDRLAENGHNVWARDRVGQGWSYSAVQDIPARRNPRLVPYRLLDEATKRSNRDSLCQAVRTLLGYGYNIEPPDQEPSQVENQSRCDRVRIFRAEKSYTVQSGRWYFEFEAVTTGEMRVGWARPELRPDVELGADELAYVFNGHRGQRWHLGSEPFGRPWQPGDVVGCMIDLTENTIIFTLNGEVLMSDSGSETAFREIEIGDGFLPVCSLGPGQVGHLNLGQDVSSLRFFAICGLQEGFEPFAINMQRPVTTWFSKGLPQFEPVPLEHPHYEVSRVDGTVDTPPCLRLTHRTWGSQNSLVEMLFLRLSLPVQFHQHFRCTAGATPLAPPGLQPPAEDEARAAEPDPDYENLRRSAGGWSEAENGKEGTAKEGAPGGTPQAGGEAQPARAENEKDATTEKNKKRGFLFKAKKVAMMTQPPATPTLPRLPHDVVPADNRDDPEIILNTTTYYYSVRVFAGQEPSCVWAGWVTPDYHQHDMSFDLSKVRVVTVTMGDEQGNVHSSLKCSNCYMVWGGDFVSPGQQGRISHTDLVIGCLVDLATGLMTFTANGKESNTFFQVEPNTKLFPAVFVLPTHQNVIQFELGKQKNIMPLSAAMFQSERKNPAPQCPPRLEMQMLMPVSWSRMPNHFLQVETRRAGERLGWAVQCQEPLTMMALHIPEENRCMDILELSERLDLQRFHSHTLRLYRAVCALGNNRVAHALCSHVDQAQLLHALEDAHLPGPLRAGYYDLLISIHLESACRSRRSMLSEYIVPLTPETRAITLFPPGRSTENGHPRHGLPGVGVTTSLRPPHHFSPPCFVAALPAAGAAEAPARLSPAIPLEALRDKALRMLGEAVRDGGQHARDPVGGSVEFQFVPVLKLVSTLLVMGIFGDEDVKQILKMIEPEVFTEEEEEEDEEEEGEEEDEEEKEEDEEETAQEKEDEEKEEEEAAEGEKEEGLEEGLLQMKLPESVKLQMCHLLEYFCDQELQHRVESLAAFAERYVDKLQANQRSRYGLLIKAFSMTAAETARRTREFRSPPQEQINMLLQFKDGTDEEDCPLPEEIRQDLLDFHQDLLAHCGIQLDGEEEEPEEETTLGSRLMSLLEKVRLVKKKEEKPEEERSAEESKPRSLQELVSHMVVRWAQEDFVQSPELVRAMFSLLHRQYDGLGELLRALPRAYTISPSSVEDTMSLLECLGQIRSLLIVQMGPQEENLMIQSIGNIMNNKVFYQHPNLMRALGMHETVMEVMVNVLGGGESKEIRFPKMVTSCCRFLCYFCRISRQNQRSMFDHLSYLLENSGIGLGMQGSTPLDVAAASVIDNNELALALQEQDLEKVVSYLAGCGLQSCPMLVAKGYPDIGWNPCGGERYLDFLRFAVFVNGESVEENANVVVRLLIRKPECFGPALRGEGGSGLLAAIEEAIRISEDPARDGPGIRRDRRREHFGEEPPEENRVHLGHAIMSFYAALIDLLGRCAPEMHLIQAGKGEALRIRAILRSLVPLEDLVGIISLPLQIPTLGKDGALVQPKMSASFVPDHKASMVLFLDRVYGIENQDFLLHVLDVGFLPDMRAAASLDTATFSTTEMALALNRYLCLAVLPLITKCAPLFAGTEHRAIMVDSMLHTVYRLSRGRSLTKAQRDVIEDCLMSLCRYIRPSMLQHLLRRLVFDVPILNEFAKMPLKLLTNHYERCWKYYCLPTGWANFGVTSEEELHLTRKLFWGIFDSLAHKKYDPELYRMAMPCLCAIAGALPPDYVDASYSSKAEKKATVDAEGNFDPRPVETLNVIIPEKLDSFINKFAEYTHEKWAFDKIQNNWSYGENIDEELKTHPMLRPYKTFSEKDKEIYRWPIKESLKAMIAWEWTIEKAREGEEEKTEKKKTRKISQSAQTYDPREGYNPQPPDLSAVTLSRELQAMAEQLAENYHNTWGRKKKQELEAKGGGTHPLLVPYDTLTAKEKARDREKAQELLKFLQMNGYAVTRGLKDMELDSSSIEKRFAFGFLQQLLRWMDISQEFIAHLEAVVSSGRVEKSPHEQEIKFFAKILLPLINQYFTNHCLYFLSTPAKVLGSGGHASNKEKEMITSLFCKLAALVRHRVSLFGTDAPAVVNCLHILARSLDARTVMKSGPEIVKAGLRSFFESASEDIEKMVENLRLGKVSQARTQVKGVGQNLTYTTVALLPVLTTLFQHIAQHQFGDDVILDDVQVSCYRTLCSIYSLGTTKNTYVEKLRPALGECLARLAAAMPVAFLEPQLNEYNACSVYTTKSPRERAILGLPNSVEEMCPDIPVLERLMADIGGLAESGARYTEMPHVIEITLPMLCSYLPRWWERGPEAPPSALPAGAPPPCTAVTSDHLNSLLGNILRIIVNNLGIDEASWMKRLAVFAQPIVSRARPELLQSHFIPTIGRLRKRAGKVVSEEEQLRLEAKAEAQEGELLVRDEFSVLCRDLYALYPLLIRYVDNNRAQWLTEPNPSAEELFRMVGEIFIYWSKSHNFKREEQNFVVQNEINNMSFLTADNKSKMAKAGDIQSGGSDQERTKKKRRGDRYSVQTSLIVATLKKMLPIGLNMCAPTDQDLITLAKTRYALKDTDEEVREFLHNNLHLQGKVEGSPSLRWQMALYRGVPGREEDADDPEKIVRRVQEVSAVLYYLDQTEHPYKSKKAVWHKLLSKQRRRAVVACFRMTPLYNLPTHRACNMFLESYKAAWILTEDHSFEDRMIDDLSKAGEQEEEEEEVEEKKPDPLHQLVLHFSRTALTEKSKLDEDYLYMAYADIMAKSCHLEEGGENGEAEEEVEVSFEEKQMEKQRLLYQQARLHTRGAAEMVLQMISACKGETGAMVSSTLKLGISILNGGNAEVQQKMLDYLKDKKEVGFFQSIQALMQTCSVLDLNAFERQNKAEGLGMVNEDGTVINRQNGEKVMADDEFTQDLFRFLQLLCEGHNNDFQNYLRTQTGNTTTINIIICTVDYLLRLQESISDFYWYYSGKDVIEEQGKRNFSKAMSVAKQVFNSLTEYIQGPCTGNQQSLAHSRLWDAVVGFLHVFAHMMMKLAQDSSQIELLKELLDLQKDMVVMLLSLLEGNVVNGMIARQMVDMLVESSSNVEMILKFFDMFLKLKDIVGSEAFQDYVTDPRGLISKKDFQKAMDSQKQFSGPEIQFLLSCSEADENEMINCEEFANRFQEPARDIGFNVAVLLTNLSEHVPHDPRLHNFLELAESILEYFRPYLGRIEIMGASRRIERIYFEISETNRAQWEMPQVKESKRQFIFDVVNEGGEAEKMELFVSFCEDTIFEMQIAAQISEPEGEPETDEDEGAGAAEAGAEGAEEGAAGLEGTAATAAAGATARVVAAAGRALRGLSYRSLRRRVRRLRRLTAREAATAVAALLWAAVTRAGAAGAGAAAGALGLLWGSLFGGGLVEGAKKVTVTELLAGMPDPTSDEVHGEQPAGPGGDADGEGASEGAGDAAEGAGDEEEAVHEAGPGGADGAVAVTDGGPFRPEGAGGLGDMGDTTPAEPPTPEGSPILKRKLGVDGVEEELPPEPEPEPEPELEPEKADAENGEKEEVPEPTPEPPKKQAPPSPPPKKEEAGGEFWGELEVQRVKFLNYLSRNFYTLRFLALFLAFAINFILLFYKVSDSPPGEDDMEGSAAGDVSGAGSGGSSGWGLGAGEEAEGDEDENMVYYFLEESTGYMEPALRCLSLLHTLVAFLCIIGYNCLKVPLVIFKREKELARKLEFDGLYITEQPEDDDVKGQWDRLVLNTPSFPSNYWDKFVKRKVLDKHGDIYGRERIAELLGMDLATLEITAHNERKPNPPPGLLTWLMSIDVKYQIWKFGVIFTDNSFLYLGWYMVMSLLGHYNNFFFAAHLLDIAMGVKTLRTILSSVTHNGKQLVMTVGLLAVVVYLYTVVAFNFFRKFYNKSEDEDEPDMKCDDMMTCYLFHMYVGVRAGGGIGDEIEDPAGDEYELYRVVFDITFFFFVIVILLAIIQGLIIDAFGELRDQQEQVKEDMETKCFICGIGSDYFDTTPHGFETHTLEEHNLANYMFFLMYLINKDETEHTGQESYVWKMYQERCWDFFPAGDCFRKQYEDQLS

SMILES: O=C1NCCc2cc(Br)c(O)c(c2)Oc2ccc(cc2Br)CCNC(=O)/C(=N\O)Cc2cc(Br)c(O)c(c2)Oc2c(Br)cc(cc2Br)C/C1=N/O
- ED50: 2.3 µM
